Experiment [1] deals with B cells in human blood. The experiment is described as follows: Inhibition of B cell activation in whole blood measured by CD69 expression. It is filed as cell-based. The following applies: anti-IgM stimulation, 20 hours, CD69-positive cells that are also CD20-positive, read-out: HWB IC50. Here is the method: A procedure to test the ability of Btk inhibitors to suppress B cell receptor-mediated activation of B cells in human blood is as follows:
Human whole blood (HWB) is obtained from healthy volunteers, with the following restrictions: 24 hr drug-free, non-smokers. Blood is collected by venipuncture into Vacutainer tubes anticoagulated with sodium heparin. Test compounds are diluted to ten times the desired starting drug concentration in PBS (20×), followed by three-fold serial dilutions in 10% DMSO in PBS to produce a nine point dose-response curve. 5.5 μl of each compound dilution is added in duplicate to a 2 ml 96-well V bottom plate (Analytical Sales and Services, #59623-23); 5.5 μl of 10% DMSO in PBS is added to control and no-stimulus wells. HWB (100 μl) is added to each well, and after mixing the plates are incubated at 37 C, 5% CO2, 100% humidity for 30 minutes. Goat F(ab′)2 anti-human IgM (Southern Biotech, #2022-14) (10 μl of a 500 μg/ml solution, 50 μg/ml final concentration) is added to each well (except the no-stimulus wells) with mixing and the plates are incubated for an additional 20 hours.
At the end of the 20 hour incubation, samples are incubated with florescent-probe-labeled anti-bodies (15 μl PE Mouse anti-Human CD20, BD Pharmingen, #555623, and/or 20 ul APC Mouse anti-Human CD69, BD Pharmingen #555533) for 30 minutes, at 37 C, 5% CO2, 100% humidity. Included are induced control, unstained and single stains for compensation adjustments and initial voltage settings. Samples are then lysed with 1 ml of 1× Pharmingen Lyse Buffer (BD Pharmingen #555899), and plates are centrifuged at 1800 rpm for 5 minutes. Supernatants are removed via suction and the remaining pellets are lysed again with another 1 ml of 1× Pharmingen Lyse Buffer, and plates are spun down as before. Supernatants are aspirated and remaining pellets are washed in FACs buffer (PBS+1% FBS). After a final spin, the supernantants are removed and pellets are resuspended in 180 μl of FACs buffer. Samples are transferred to a 96 well plate suitable to be run on the HTS 96 well system on the BD LSR II flow cytometer.
Using appropriate excitation and emission wavelengths for the fluorophores used, data are acquired and percent positive cell values are obtained using Cell Quest Software. Results are initially analyzed by FACS analysis software (Flow Jo). […] The IC50 values are calculated using XLfit software version 3, equation 201.

Experiment [2] deals with Bruton's Tyrosine Kinase (Homo sapiens, UniProt Q06187). The experiment is described as follows: Bruton's Tyrosine Kinase (BTK) Inhibition TR-FRET competition assay. It is filed as binding. The note with it: inactivated state of BTK; Kinase Tracer 178; 18-24 h at 14° C. The procedure: This BTK competition assay measures compound potency (IC50) for the inactivated state of Bruton's Tyrosine Kinase using FRET (Forster/Fluorescence Resonance Energy Transfer) technology. The BTK-Eu complex was incubated on ice one hour prior to use at a starting concentration of 50 nM BTK-Bioease™: 10 nM Eu-streptavidin (Perkin-Elmer Catalog# AD0062). The assay buffer consisted of 20 mM HEPES (pH 7.15), 0.1 mM DTT, 10 mM MgCl2, 0.5 mg/ml BSA with 3% Kinase Stabilizer (Fremont Biosolutions, Catalog # STB-K02). After 1 h, the reaction mixture from above was diluted 10 fold in assay buffer to make 5 nM BTK: 1 nM Eu-Streptavidin complex (donor fluorophore). […] of a mixture of 0.11 nM BTK-Eu and 0.11 nM Kinase Tracer 178 (Invitrogen, Catalog # PV5593,) with BTK-Eu alone as no negative control, was then dispensed into 384-well flat bottom plates (Greiner, 784076). Compounds to be tested in assay were prepared as 10× concentrations and serial dilution in half-log increments was performed in DMSO so as to generate 10 point curves. To initiate the FRET reaction, compounds prepared as 10× stock in DMSO was added to the plates and the plates were incubated 18-24 h at 14° C.
After the incubation the plates were read on a BMG Pherastar Fluorescent plate reader (or equivalent) and used to measure the emission energy from the europium donor fluorophore (620 nm emission) and the FRET (665 nm emission). The negative control well values were averaged to obtain the mean minimum. The positive “no inhibitor” control wells were averaged to obtain the mean maximum. Percent of maximal FRET was calculated using following equation:
% max FRET=100×[(FSRcmpd−FSRmean min)/(FSRmean max−FSRmean min)]
where FSR=FRET Signal ratio. % Max FRET curves were plotted in Activity Base (Excel) and the IC50(%), hill slope, z′ and % CV were determined. The mean IC50 and standard deviation will be derived from duplicate curves (singlet inhibition curves from two independent dilutions) using Microsoft Excel.

SMILES strings stand for the structures.

Bruton's Tyrosine Kinase, sequence (Q06187 whole entry): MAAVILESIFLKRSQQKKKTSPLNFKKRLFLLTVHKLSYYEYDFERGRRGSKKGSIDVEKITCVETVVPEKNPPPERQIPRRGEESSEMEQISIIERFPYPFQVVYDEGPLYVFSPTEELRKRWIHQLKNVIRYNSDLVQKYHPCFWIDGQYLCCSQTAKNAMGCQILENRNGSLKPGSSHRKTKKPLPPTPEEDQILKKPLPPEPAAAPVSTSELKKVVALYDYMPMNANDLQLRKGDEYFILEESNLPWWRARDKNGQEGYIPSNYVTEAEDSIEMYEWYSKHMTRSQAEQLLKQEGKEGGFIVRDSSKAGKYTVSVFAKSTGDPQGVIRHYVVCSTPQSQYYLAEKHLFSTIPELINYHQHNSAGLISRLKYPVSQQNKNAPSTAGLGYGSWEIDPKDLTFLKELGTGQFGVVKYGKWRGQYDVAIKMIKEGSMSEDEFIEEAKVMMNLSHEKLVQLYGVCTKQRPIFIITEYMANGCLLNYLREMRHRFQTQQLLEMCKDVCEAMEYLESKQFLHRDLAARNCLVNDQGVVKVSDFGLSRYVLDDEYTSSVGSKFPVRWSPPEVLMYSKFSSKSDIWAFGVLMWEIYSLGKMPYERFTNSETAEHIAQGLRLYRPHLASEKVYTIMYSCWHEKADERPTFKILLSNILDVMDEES

For `Cn1cc(-c2cc3c(-c4ccc(CNC(=O)c5ccc(C(C)(C)C)cc5)cc4)ncnc3[nH]2)cn1` [Compound I-21, 4-tert-Butyl-N-{4-[6-(1-methyl-1H-pyrazol-4-yl)-7H-pyrrolo[2,3-d]pyrimidin-4-yl]-benzyl}-benzamide], the IC50 in experiment [1] stood at 1400 nM; in experiment [2], 7 nM.
The like results for `Cn1cc(-c2cc3c(-c4ccc(CNC(=O)c5ccc(C6CC6)cc5)cc4)ncnc3[nH]2)cn1` [Compound I-22, 4-Cyclopropyl-N-{4-[6-(1-methyl-1H-pyrazol-4-yl)-7H-pyrrolo[2,3-d]pyrimidin-4-yl]-benzyl}-benzamide] were, in that order, 5480 nM and 8 nM.
For `CC(C)c1ccc(C(=O)NCc2ccc(-c3ncnc4[nH]c(-c5cnn(C)c5)cc34)cc2)cc1` [Compound I-23, 4-Isopropyl-N-{4-[6-(1-methyl-1H-pyrazol-4-yl)-7H-pyrrolo[2,3-d]pyrimidin-4-yl]-benzyl}-benzamide], in that order: 1400 nM and 7 nM.
The like results for `Cn1cc(-c2cc3c(-c4ccc(CNC(=O)c5ccc(C6(C)COC6)cc5)cc4)ncnc3[nH]2)cn1` [Compound I-25, 4-(3-Methyl-oxetan-3-yl)-N-{4-[6-(1-methyl-1H-pyrazol-4-yl)-7H-pyrrolo[2,3-d]pyrimidin-4-yl]-benzyl}-benzamide] were, in that order, 28900 nM and 44 nM.
Regarding `Cn1cc(-c2cc3c(-c4ccc(CNC(=O)c5cc6c(s5)CCCC6)cc4)ncnc3[nH]2)cn1` [Compound I-26, 4,5,6,7-Tetrahydro-benzo[b]thiophene-2-carboxylic acid 4-[6-(1-methyl-1H-pyrazol-4-yl)-7H-pyrrolo[2,3-d]pyrimidin-4-yl]-benzylamide], the IC50 in experiment [1] turned out to be 608 nM; in experiment [2] it was 1 nM.
The like results for `Cn1cc(-c2cc3c(-c4ccc(CNC(=O)c5ccc(C(C)(C)C)cc5)c(F)c4)ncnc3[nH]2)cn1` [Compound I-27, 4-tert-Butyl-N-{2-fluoro-4-[6-(1-methyl-1H-pyrazol-4-yl)-7H-pyrrolo[2,3-d]pyrimidin-4-yl]-benzyl}-benzamide] were, in that order, 812 nM and 2 nM.
In the case of `Cn1cc(-c2cc3c(-c4ccc(CNC(=O)c5ccc(C(C)(C)C)nc5)c(F)c4)ncnc3[nH]2)cn1` [Compound I-28, 6-tert-Butyl-N-{2-fluoro-4-[6-(1-methyl-1H-pyrazol-4-yl)-7H-pyrrolo[2,3-d]pyrimidin-4-yl]-benzyl}-nicotinamide], the IC50 amounted to 2540 nM in experiment [1] and 4 nM in experiment [2].
In the case of `Cc1ccc(C(=O)NCc2ccc(-c3ncnc4[nH]c(-c5cnn(C)c5)cc34)cc2F)s1` [Compound I-29, 5-Methyl-thiophene-2-carboxylic acid 2-fluoro-4-[6-(1-methyl-1H-pyrazol-4-yl)-7H-pyrrolo[2,3-d]pyrimidin-4-yl]-benzylamide], the IC50 in experiment [1] stood at 470 nM; in experiment [2] it was 3 nM.
The like results for `CC(C)(C)c1ccc(C(=O)NCc2ccc(-c3ncnc4[nH]c(-c5cnn(CCO)c5)cc34)cc2F)cc1` [Compound I-30, 4-tert-Butyl-N-(2-fluoro-4-{6-[1-(2-hydroxy-ethyl)-1H-pyrazol-4-yl]-7H-pyrrolo[2,3-d]pyrimidin-4-yl}-benzyl)-benzamide] were, in that order, 1040 nM and 0.7 nM.
For `CN(Cc1ccc(-c2ncnc3[nH]c(-c4cnn(C)c4)cc23)cc1F)C(=O)c1ccc(C(C)(C)C)cc1` [Compound I-31, 4-tert-Butyl-N-{2-fluoro-4-[6-(1-methyl-1H-pyrazol-4-yl)-7H-pyrrolo[2,3-d]pyrimidin-4-yl]-benzyl}-N-methyl-benzamide], the IC50 in experiment [1] amounted to 6050 nM; in experiment [2], 20 nM.
For `Cn1cc(-c2cc3c(-c4ccc(CN5Cc6cc(C(C)(C)C)sc6C5=O)c(F)c4)ncnc3[nH]2)cn1` [Compound I-33, 2-tert-Butyl-5-{2-fluoro-4-[6-(1-methyl-1H-pyrazol-4-yl)-7H-pyrrolo[2,3-d]pyrimidin-4-yl]-benzyl}-4,5-dihydro-thieno[2,3-c]pyrrol-6-one], in that order: 129 nM and 1 nM.
Turning to `Cn1cc(-c2cc3c(-c4ccc(CNC(=O)c5cc(C(C)(C)C)on5)c(F)c4)ncnc3[nH]2)cn1` [Compound I-34, 5-tert-Butyl-isoxazole-3-carboxylic acid 2-fluoro-4-[6-(1-methyl-1H-pyrazol-4-yl)-7H-pyrrolo[2,3-d]pyrimidin-4-yl]-benzylamide], the IC50 came out at 76 nM in experiment [1] and 0.2 nM in experiment [2].
The like results for `Cn1cc(-c2cc3c(-c4ccc(CNC(=O)c5ccc(C6(C)COC6)cc5)c(F)c4)ncnc3[nH]2)cn1` [Compound I-35, N-{2-Fluoro-4-[6-(1-methyl-1H-pyrazol-4-yl)-7H-pyrrolo[2,3-d]pyrimidin-4-yl]-benzyl}-4-(3-methyl-oxetan-3-yl)-benzamide] were, in that order, 5500 nM and 8 nM.
Regarding `Cn1cc(-c2cc3c(-c4ccc(CNC(=O)c5ccc(C(C)(C)C#N)cc5)c(F)c4)ncnc3[nH]2)cn1` [Compound I-36, 4-(Cyano-dimethyl-methyl)-N-{2-fluoro-4-[6-(1-methyl-1H-pyrazol-4-yl)-7H-pyrrolo[2,3-d]pyrimidin-4-yl]-benzyl}-benzamide], the results for the half-maximal inhibitory concentration (IC50) in experiment [1] and in experiment [2] were 6740 nM and 4 nM, respectively.
The like results for `Cn1cc(-c2cc3c(-c4ccc(CNC(=O)c5cc6c(s5)CCCC6)c(F)c4)ncnc3[nH]2)cn1` [Compound I-37, 4,5,6,7-Tetrahydro-benzo[b]thiophene-2-carboxylic acid 2-fluoro-4-[6-(1-methyl-1H-pyrazol-4-yl)-7H-pyrrolo[2,3-d]pyrimidin-4-yl]-benzylamide] were, in that order, 655 nM and 0.3 nM.
For `Cn1cc(-c2cc3c(-c4ccc(CNC(=O)c5ccc(C(C)(C)O)cc5)c(F)c4)ncnc3[nH]2)cn1` [Compound I-38, N-{2-Fluoro-4-[6-(1-methyl-1H-pyrazol-4-yl)-7H-pyrrolo[2,3-d]pyrimidin-4-yl]-benzyl}-4-(1-hydroxy-1-methyl-ethyl)-benzamide], the concentration for half-maximal inhibition (IC50) in experiment [1] is 3270 nM; in experiment [2] it was 3 nM.
The like results for `Cn1cc(-c2cc3c(-c4ccc(CNC(=O)c5cc(C(C)(C)C)no5)c(F)c4)ncnc3[nH]2)cn1` [Compound I-39, 3-tert-Butyl-isoxazole-5-carboxylic acid 2-fluoro-4-[6-(1-methyl-1H-pyrazol-4-yl)-7H-pyrrolo[2,3-d]pyrimidin-4-yl]-benzyl amide] were, in that order, 28 nM and 0.2 nM.
The like results for `Cn1cc(-c2cc3c(-c4ccc(CNC(=O)N5CC(OC(C)(C)C)C5)c(F)c4)ncnc3[nH]2)cn1` [Compound I-40, 3-tert-Butoxy-azetidine-1-carboxylic acid 2-fluoro-4-[6-(1-methyl-1H-pyrazol-4-yl)-7H-pyrrolo[2,3-d]pyrimidin-4-yl]-benzylamide] were, in that order, 52 nM and 0.6 nM.

For the origin of these results see US20150284394A1, “INHIBITORS OF BRUTON'S TYROSINE KINASE” (HOFFMANN-LA ROCHE INC., priority 2012, published 2015).
